Measured values taken from ChEMBL document CHEMBL5465560, “Selectivity Literature for EUbOPEN Chemogenomic Library” (2024).
Values belong to the molecule of their own block, whether it stands above or below them.

Legend:
[1] = molecular target: Endothelin-1 receptor (Homo sapiens) (UniProt P25101); experiment: Selectivity interaction (Panel of non-epigenetic targets (kinases, GPCRs, ion channels, and transporters, Eurofins) ) EUB0000271b EDNRA; details: at 1 µM
[2] = molecular target: T1, Tyrosine-protein kinase JAK3 (Homo sapiens, UniProt P52333); experiment: Selectivity interaction (Enyzmatic assay) EUB0000601a JAK3
T1 sequence (P52333 whole entry): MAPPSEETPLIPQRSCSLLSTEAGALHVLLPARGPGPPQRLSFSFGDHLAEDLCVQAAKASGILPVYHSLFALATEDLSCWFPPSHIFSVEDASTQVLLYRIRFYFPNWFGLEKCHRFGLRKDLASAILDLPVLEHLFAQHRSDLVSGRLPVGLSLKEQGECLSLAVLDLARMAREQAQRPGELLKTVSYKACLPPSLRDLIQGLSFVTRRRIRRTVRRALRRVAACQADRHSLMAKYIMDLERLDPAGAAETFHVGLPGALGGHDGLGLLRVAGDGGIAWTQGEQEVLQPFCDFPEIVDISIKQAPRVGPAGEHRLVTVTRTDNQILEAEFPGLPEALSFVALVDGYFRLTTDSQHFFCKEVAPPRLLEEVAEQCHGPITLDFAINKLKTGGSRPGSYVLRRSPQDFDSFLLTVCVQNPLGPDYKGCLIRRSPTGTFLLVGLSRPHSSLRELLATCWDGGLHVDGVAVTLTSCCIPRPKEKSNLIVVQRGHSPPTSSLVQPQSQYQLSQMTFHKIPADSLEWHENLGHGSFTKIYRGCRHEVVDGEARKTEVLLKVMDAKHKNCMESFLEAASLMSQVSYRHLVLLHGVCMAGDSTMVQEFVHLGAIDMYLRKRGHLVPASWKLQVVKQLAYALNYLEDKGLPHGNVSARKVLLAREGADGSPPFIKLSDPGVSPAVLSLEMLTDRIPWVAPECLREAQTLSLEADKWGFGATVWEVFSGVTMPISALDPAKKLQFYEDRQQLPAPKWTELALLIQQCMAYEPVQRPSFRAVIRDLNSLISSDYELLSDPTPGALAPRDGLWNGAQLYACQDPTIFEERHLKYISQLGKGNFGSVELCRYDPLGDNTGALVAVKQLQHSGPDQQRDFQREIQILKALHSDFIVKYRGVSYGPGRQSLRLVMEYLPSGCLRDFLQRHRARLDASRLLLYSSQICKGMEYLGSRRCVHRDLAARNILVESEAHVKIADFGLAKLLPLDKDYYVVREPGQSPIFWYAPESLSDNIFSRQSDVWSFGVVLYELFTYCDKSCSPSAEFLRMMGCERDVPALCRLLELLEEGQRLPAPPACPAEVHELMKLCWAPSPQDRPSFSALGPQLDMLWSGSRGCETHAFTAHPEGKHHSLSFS

[3] = molecular target: Serine/threonine-protein kinase Nek4 (Homo sapiens) (UniProt P51957); experiment: Selectivity interaction (Ambit KINOMEscan and KiNATiv profiling in Jurkat cells) EUB0000090b NEK4; assay type: cell-based; details: at 1 µM
Serine/threonine-protein kinase Nek4 (Homo sapiens), sequence (P51957 whole entry, looked up): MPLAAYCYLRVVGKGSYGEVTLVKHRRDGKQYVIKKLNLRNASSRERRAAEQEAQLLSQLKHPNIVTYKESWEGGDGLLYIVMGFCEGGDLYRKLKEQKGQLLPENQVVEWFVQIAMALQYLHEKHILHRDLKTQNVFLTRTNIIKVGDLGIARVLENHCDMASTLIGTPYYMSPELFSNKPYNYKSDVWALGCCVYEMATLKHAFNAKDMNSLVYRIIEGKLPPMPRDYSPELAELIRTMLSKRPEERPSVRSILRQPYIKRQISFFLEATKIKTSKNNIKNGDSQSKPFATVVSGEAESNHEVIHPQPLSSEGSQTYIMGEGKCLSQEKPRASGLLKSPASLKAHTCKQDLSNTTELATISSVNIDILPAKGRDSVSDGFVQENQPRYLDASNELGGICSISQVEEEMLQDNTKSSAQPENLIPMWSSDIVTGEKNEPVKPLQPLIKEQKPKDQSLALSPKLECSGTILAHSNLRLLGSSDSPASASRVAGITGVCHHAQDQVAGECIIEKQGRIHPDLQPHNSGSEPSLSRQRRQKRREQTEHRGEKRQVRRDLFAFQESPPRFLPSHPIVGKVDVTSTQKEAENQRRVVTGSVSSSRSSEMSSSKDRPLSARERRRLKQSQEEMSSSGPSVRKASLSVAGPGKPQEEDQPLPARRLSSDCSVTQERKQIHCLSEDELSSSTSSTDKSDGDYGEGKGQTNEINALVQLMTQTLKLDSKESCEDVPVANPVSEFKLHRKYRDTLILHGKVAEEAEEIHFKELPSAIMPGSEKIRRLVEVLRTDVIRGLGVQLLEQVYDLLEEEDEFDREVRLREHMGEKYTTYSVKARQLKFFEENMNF

[4] = molecular target: Angiopoietin-1 receptor (Homo sapiens) (UniProt Q02763); experiment: Selectivity interaction (Kinase panel (literature)) EUB0001199aCl TEK; details: at 1 µM
Angiopoietin-1 receptor (Homo sapiens), sequence (Q02763 whole entry): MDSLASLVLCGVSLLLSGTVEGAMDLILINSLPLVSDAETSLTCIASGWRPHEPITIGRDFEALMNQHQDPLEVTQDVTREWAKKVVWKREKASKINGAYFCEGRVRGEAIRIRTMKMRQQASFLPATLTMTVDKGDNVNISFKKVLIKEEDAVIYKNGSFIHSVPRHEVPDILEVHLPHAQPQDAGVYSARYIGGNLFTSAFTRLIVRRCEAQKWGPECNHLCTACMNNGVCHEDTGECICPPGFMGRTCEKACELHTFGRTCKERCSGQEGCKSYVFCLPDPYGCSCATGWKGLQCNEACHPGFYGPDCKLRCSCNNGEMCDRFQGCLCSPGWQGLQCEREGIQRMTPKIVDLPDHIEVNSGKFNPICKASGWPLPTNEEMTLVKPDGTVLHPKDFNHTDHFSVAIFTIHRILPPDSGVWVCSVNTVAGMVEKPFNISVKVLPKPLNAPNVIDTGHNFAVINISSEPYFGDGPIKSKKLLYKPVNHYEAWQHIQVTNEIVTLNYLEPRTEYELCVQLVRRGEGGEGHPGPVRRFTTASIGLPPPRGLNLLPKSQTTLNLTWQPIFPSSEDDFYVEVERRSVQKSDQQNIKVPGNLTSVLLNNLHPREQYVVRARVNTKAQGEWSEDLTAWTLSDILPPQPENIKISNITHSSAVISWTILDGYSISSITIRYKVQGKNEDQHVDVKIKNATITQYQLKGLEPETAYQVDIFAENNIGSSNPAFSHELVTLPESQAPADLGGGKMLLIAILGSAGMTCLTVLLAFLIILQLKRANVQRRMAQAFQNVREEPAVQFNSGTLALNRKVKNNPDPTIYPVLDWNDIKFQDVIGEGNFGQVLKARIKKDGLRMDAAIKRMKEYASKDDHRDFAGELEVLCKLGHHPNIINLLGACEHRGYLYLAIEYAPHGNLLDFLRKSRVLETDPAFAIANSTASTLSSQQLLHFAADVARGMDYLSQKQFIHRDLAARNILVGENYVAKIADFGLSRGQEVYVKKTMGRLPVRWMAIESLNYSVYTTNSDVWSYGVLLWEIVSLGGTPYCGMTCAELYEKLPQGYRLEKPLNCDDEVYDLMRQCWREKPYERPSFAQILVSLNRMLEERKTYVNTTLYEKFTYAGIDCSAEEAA

[5] = molecular target: Mitogen-activated protein kinase 8 (Homo sapiens, UniProt P45983); experiment: Selectivity interaction (KinomeScan (DiscoverX)) EUB0000607a MAPK8; details: at 10 µM
Mitogen-activated protein kinase 8, sequence (P45983 whole entry): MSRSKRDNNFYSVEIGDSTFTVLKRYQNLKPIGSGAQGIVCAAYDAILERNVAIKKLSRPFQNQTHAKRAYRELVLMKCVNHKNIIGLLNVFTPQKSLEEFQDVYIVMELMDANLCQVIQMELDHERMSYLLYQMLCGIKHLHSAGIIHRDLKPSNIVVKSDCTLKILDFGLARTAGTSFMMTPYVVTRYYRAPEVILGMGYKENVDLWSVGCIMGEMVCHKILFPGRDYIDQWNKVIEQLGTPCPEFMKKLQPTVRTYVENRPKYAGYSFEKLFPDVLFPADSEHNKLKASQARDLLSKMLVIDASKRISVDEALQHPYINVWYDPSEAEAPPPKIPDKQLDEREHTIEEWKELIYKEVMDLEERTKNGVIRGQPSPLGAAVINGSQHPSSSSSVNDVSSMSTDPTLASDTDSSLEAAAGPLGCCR

[6] = molecular target: Calcium/calmodulin-dependent protein kinase type 1 (Homo sapiens) (UniProt Q14012); experiment: Selectivity interaction (Upstate Kinase Profiler service (Millipore)) EUB0000056c CAMK1; details: at 1 µM
Calcium/calmodulin-dependent protein kinase type 1 (Homo sapiens), sequence (Q14012 whole entry, looked up): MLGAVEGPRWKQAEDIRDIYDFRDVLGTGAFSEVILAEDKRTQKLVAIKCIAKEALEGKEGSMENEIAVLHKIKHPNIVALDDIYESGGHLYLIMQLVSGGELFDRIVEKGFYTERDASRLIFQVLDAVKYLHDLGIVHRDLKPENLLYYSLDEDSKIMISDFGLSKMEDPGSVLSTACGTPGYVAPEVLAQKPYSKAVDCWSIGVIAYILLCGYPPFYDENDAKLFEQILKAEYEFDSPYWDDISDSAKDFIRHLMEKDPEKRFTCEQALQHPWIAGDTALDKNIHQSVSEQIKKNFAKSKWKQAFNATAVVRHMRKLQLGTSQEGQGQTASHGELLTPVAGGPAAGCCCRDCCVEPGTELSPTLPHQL

[7] = molecular target: Mitogen-activated protein kinase kinase kinase 11 (Homo sapiens) (UniProt Q16584); experiment: Selectivity interaction (KinomeScan (DiscoverX)) EUB0000229b MAP3K11; details: at 10 µM
Mitogen-activated protein kinase kinase kinase 11 (Homo sapiens), sequence (Q16584 whole entry, looked up): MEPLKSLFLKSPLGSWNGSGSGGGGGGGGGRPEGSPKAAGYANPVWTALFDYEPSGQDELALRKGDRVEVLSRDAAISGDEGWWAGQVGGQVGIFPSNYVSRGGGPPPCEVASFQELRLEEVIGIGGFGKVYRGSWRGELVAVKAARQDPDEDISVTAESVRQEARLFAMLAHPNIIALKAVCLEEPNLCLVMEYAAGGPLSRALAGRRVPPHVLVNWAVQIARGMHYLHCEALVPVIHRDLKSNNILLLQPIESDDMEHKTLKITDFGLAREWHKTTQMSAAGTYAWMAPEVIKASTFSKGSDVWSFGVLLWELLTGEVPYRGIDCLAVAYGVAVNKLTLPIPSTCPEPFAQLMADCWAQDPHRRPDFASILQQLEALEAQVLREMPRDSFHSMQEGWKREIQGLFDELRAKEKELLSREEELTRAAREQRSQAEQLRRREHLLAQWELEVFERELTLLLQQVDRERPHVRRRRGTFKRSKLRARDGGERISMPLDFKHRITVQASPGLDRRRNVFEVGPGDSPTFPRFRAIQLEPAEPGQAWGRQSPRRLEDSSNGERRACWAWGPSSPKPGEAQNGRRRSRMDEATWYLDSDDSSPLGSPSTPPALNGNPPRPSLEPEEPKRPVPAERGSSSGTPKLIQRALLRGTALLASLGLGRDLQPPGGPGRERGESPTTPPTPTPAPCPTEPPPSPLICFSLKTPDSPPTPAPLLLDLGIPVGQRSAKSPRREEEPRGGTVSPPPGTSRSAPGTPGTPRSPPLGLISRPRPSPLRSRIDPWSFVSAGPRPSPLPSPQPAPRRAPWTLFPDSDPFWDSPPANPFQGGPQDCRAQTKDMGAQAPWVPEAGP

D(1A) dopamine receptor = D(1A) dopamine receptor (Homo sapiens, UniProt P21728); experiment: Selectivity interaction (Dopamine D1 - cAMP agonist mode ) EUB0000877a DRD1
D(1A) dopamine receptor, sequence (P21728 whole entry): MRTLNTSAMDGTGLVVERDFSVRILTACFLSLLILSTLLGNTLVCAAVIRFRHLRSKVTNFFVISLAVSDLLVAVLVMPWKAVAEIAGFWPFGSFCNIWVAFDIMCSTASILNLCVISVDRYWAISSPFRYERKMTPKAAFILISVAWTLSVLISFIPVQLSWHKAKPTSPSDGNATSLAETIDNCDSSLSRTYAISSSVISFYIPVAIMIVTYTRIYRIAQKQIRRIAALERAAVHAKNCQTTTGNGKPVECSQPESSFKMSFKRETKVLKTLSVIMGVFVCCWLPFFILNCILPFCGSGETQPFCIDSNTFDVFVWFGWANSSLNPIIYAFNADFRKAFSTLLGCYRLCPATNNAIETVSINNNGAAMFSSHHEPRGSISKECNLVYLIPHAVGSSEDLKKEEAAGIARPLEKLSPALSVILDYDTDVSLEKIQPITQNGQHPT

[8] = molecular target: Serine/threonine-protein kinase SIK3 (Homo sapiens) (UniProt Q9Y2K2); experiment: Selectivity interaction (KinomeScan (DiscoverX)) EUB0000092b SIK3; details: at 10 µM

Endothelin-1 receptor (Homo sapiens), sequence (P25101 whole entry): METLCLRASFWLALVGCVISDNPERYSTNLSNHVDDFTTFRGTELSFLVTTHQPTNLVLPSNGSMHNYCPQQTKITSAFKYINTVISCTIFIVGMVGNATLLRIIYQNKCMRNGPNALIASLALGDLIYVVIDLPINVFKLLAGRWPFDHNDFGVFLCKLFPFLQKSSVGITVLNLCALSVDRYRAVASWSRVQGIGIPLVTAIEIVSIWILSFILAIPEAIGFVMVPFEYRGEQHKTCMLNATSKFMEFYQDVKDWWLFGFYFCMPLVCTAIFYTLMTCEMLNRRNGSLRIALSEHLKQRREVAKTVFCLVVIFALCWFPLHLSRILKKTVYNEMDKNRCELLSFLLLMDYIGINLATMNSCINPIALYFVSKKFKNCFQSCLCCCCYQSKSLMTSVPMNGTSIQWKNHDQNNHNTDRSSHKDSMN

SMILES: Cc1cc(C)cc([C@@H]2c3cc(C)ccc3NC(=O)CN2C(=O)c2ccc(Br)s2)c1
% of inhibition [1]: -24%

IC50 [2]: > 10 µM
SMILES: CCc1cc(Nc2nccc(-c3c(-c4ccc(OC)c(C(=O)Nc5c(F)cccc5F)c4)nc4ccccn34)n2)c(OC)cc1N1CCC(N2CCN(S(C)(=O)=O)CC2)CC1

SMILES: CN(C)C/C=C/C(=O)Nc1ccc(C(=O)N2CCCC(Nc3ncc(Cl)c(-c4c[nH]c5ccccc45)n3)C2)cc1 (centres undefined)
% of control [3]: 100%

% of inhibition [4]: 1%
SMILES: CN1Cc2nccc(-c3cn(C)nc3-c3ccc(F)cc3)c2C1=O

SMILES: CNC(=O)Nc1ccc(-c2nc(N3CC4CCC(C3)O4)c3cnn(C4CCC5(CC4)OCCO5)c3n2)cc1
% of control [5]: 91%

% of inhibition [6]: 2%
SMILES: Cc1ccc(-c2ccc3c(ccc4sc5c(c43)NC[C@@H](C)NC5=O)n2)cn1

SMILES: COc1cc(N(C)c2ccnc3ccc(C(F)(F)F)cc23)cc(OC)c1OC
% binding [7]: 92%

IC50 (D(1A) dopamine receptor): > 30 µM
SMILES: CCC(=O)N1CC[C@H](Nc2ncnc3c2CN(c2cnc(OC)c(C(F)(F)F)c2)CC3)C1 [LENIOLISIB]

SMILES: CCC(=O)N1CCN(c2ccc(-n3c(=O)ccc4cnc5ccc(-c6cnc7ccccc7c6)cc5c43)cc2C(F)(F)F)CC1
% of control [8]: 89%
